Assay results reported in publication PMC9374744, “Structural basis for receptor selectivity and inverse agonism in S1P5 receptors” (Nature Communications, 2022).
Where “and” joins values, the source holds several entries; their conditions need not be identical. Equal entries are not always repeated.

How the values were obtained:
human S1P5 K24R mutant = human S1P5 K24R mutant (Homo sapiens, UniProt Q9H228, K24R); experiment: BRET-based cAMP Gi signaling assay, S1P5 K24R; settings: for BRET ratio, Supplementary Figure 6b: replicate values, listed as ONO; for EC50: inverse agonism
Sequence of human S1P5 K24R mutant (Q9H228 whole entry K24R): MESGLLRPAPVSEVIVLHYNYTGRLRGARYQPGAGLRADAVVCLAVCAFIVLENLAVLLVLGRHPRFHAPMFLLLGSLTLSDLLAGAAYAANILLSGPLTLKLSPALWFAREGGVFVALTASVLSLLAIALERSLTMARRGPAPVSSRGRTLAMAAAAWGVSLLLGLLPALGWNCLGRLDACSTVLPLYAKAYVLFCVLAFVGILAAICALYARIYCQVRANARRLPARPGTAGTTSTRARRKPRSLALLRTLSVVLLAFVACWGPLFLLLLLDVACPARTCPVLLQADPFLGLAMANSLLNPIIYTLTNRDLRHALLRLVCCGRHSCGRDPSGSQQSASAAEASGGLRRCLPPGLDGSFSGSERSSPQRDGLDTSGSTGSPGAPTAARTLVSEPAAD

human S1P5 R111A mutant = human S1P5 R111A mutant (Homo sapiens, UniProt Q9H228, R111A); experiment: BRET-based cAMP Gi signaling assay, S1P5 R111A; settings: inverse agonism
Sequence of human S1P5 R111A mutant (Q9H228 whole entry R111A): as the sequence (Q9H228 whole entry K24R) above, with R24K, R111A counted along it

human S1P5 V115A mutant = human S1P5 V115A mutant (Homo sapiens, UniProt Q9H228, V115A); experiment: BRET-based cAMP Gi signaling assay, S1P5 V115A; settings: inverse agonism
Sequence of human S1P5 V115A mutant (Q9H228 whole entry V115A): as the sequence (Q9H228 whole entry K24R) above, with R24K, V115A counted along it

human S1P5 N92C mutant = human S1P5 N92C mutant (Homo sapiens, UniProt Q9H228, N92C); experiment: BRET-based cAMP Gi signaling assay, S1P5 N92C; settings: inverse agonism
Sequence of human S1P5 N92C mutant (Q9H228 whole entry N92C): as the sequence (Q9H228 whole entry K24R) above, with R24K, N92C counted along it

human S1P5 Y89A mutant = human S1P5 Y89A mutant (Homo sapiens, UniProt Q9H228, Y89A); experiment: BRET-based cAMP Gi signaling assay, S1P5 Y89A; settings: inverse agonism
Sequence of human S1P5 Y89A mutant (Q9H228 whole entry Y89A): as the sequence (Q9H228 whole entry K24R) above, with R24K, Y89A counted along it

human S1P5 G293A mutant = human S1P5 G293A mutant (Homo sapiens, UniProt Q9H228, G293A); experiment: BRET-based cAMP Gi signaling assay, S1P5 G293A; settings: inverse agonism
Sequence of human S1P5 G293A mutant (Q9H228 whole entry G293A): as the sequence (Q9H228 whole entry K24R) above, with R24K, G293A counted along it

human S1P5 Y89W mutant = human S1P5 Y89W mutant (Homo sapiens, UniProt Q9H228, Y89W); experiment: BRET-based cAMP Gi signaling assay, S1P5 Y89W; settings: inverse agonism
Sequence of human S1P5 Y89W mutant (Q9H228 whole entry Y89W): as the sequence (Q9H228 whole entry K24R) above, with R24K, Y89W counted along it

human WT S1P5 receptor = human WT S1P5 receptor (Homo sapiens, UniProt Q9H228); experiment: BRET-based cAMP (EPAC biosensor) Gi signaling assay, WT S1P5; settings: for BRET signal, raw replicate readings: WT, listed as ONO; for EC50: inverse agonism
Sequence of human WT S1P5 receptor (Q9H228 whole entry): as the sequence (Q9H228 whole entry K24R) above, with R24K counted along it

[1] = Figure 2c source data, N/R = no response

O=C(O)CCCN1CCc2cccc(OCCc3cccc4ccccc34)c2CC1 [ONO-5430608, 4-{6-[2-(1-naphthyl)ethoxy]-1,2,4,5-tetrahydro-3H-3-benzazepin-3-yl} butanoic acid]
BRET ratio, Supplementary Figure 6b (human S1P5 K24R mutant; K24R, [ONO] 0.169351 nM): 0.7619 and 0.7605 and 0.7627 and 0.7643 and 0.765 and 0.7649 and 0.7612 and 0.7652 and 0.7621 | BRET ratio, Supplementary Figure 6b (human S1P5 K24R mutant; K24R, [ONO] 0.508053 nM): 0.7573 and 0.7607 and 0.7624 and 0.7643 and 0.7627 and 0.7635 and 0.7628 and 0.761 and 0.7617 | BRET ratio, Supplementary Figure 6b (human S1P5 K24R mutant; K24R, [ONO] 1.52416 nM): 0.7542 and 0.7548 and 0.7577 and 0.7568 (2×) and 0.7598 and 0.7585 and 0.7546 and 0.7523 | BRET ratio, Supplementary Figure 6b (human S1P5 K24R mutant; K24R, [ONO] 4.57247 nM): 0.7493 and 0.7475 and 0.7463 and 0.7487 and 0.7486 and 0.7479 and 0.7433 and 0.7453 and 0.7422 | BRET ratio, Supplementary Figure 6b (human S1P5 K24R mutant; K24R, [ONO] 13.7174 nM): 0.7349 and 0.7366 and 0.7407 and 0.7346 and 0.7367 and 0.7337 and 0.7316 and 0.7355 and 0.7298 | EC50 (human S1P5 K24R mutant; ONO, pEC50, M, K24R, mean ± SD, n=3): 4.57 nM | EC50 (human S1P5 K24R mutant; ONO-5430608 pEC50, single experiments #1-#3, K24R, Figure 2c source data): 4.65 nM and 4.87 nM and 4.1 nM | ONO-5430608 pEC50, single experiments #1-#3 (human S1P5 R111A mutant; [1]): N/R | ONO, pEC50, M (human S1P5 R111A mutant; n=3, N/R = no response): N/R | EC50 (human S1P5 V115A mutant; ONO, pEC50, M, V115A, mean ± SD, n=3): 29.5 nM | EC50 (human S1P5 V115A mutant; ONO-5430608 pEC50, single experiments #1-#3, V115A, Figure 2c source data): 30.6 nM and 24.8 nM and 34.5 nM | ONO-5430608 pEC50, single experiments #1-#3 (human S1P5 N92C mutant; [1]): N/R | ONO, pEC50, M (human S1P5 N92C mutant; n=3, N/R = no response): N/R | ONO-5430608 pEC50, single experiments #1-#3 (human S1P5 Y89A mutant; [1]): N/R | ONO, pEC50, M (human S1P5 Y89A mutant; n=3, N/R = no response): N/R and abolishes the functional response | EC50 (human S1P5 G293A mutant; ONO, pEC50, M, G293A, mean ± SD, n=3): 4.57 nM | EC50 (human S1P5 G293A mutant; ONO-5430608 pEC50, single experiments #1-#3, G293A, Figure 2c source data): 5.11 nM and 4.57 nM and 4.12 nM | EC50 (human S1P5 Y89W mutant; ONO, pEC50, M, Y89W, mean ± SD, n=3): 2.95 nM | EC50 (human S1P5 Y89W mutant; ONO-5430608 pEC50, single experiments #1-#3, Y89W, Figure 2c source data): 3.01 nM and 1.99 nM and 4.31 nM | BRET signal, raw replicate readings (human WT S1P5 receptor; ONO 0.169351 nM, Suppl. Fig. 6f): 0.7609 and 0.7595 and 0.7587 and 0.7654 and 0.7615 and 0.7604 (2×) and 0.7628 and 0.7565 | BRET signal, raw replicate readings (human WT S1P5 receptor; ONO 0.508053 nM, Suppl. Fig. 6f): 0.753 and 0.7592 and 0.758 and 0.7626 and 0.762 and 0.759 and 0.761 and 0.7561 and 0.756 | BRET signal, raw replicate readings (human WT S1P5 receptor; ONO 1.52416 nM, Suppl. Fig. 6f): 0.748 and 0.7474 and 0.7478 (2×) and 0.7504 and 0.7525 and 0.7488 and 0.7446 and 0.7482 | BRET signal, raw replicate readings (human WT S1P5 receptor; ONO 4.57247 nM, Suppl. Fig. 6f): 0.7341 and 0.7354 and 0.7359 and 0.7386 and 0.7387 and 0.7347 and 0.7361 and 0.7362 and 0.7324 | BRET signal, raw replicate readings (human WT S1P5 receptor; ONO 13.7174 nM, Suppl. Fig. 6f): 0.7302 and 0.7285 and 0.7222 and 0.7325 and 0.7293 and 0.7332 and 0.7263 and 0.7276 and 0.7242 | BRET signal, raw replicate readings (human WT S1P5 receptor; ONO 41.1523 nM, Suppl. Fig. 6f): 0.7214 and 0.7273 and 0.7219 and 0.7256 and 0.7267 and 0.7266 and 0.7211 and 0.723 and 0.7239 | BRET signal, raw replicate readings (human WT S1P5 receptor; ONO 123.457 nM, Suppl. Fig. 6f): 0.7206 | BRET signal, raw replicate readings (human WT S1P5 receptor; ONO 370.37 nM, Suppl. Fig. 6f): 0.7228 and 0.7223 and 0.7157 and 0.7233 and 0.7238 and 0.7187 and 0.7181 (2×) and 0.7189 | BRET signal, raw replicate readings (human WT S1P5 receptor; ONO 1111.11 nM, Suppl. Fig. 6f): 0.7185 and 0.7195 and 0.7179 and 0.7229 and 0.7236 and 0.7207 and 0.7165 and 0.7204 and 0.7176 | BRET signal, raw replicate readings (human WT S1P5 receptor; ONO 3333.33 nM, Suppl. Fig. 6f): 0.719 and 0.7164 and 0.7226 and 0.7203 and 0.722 and 0.7221 and 0.7173 and 0.7187 and 0.715 | BRET signal, raw replicate readings (human WT S1P5 receptor; ONO 10000 nM, Suppl. Fig. 6f): 0.7216 and 0.7166 and 0.7165 and 0.7146 and 0.719 and 0.7226 and 0.7176 and 0.7153 and 0.7185 | BRET signal, raw replicate readings (human WT S1P5 receptor; ONO 10000 nM, Suppl. Fig. 6d): 0.7216 and 0.7166 and 0.7165 and 0.7146 and 0.719 and 0.7226 and 0.7176 and 0.7153 and 0.7185 | EC50 (human WT S1P5 receptor; ONO, pEC50, M, WT S1P5, mean ± SD, n=3): 1.7 nM | EC50 (human WT S1P5 receptor; ONO-5430608 pEC50, single experiments #1-#3, WT S1P5, Figure 2c source data): 1.35 nM and 2 nM and 1.8 nM
